Measurements from patent publication US20020025918A1, “Methods of using helical peptides in plants” (priority 1987, published 2002).
≈ marks a conversion by molar mass, not a printed value. Residues, ends and D or L forms follow the SMILES beside them.

How the values were obtained:
Enterobacteria Cloacae = assay: MIC/MBC, fresh isolates; type: cell-based; details: fresh isolate Enterobacteria Cloacae
Text: (§1) The procedure of example 2 was followed using a variety of freshly isolated bacterial samples.

Klebsiella pheumoniae-2 = assay: MIC/MBC, fresh isolates; type: cell-based; details: fresh isolate Klebsiella pheumoniae-2
Text: as §1

Staph Coag neg = assay: MIC/MBC, fresh isolates; type: cell-based; details: fresh isolate Staph Coag neg
Text: as §1

Enterococcus-2 = assay: MIC/MBC, fresh isolates; type: cell-based; details: fresh isolate Enterococcus-2
Text: as §1

Citrobacter Diversus = assay: MIC/MBC, fresh isolates; type: cell-based; details: fresh isolate Citrobacter Diversus
Text: as §1

Enterococcus-1 = assay: MIC/MBC, fresh isolates; type: cell-based; details: fresh isolate Enterococcus-1
Text: as §1

Acinetobacter Cal Anit = assay: MIC/MBC, fresh isolates; type: cell-based; details: fresh isolate Acinetobacter Cal Anit
Text: as §1

Serratia Marcescens = assay: MIC/MBC, fresh isolates; type: cell-based; details: fresh isolate Serratia Marcescens
Text: as §1

Pseudomonas aeruginosa-3 = assay: MIC/MBC, fresh isolates; type: cell-based; details: fresh isolate Pseudomonas aeruginosa-3
Text: as §1

Eschera Coli = assay: MIC/MBC, fresh isolates; type: cell-based; details: fresh isolate Eschera Coli
Text: as §1

Klebsiella pheumoniae = assay: MIC/MBC, fresh isolates; type: cell-based; details: fresh isolate Klebsiella pheumoniae
Text: as §1

Enterococcus-3 = assay: MIC/MBC, fresh isolates; type: cell-based; details: fresh isolate Enterococcus-3
Text: as §1

Morganella morganil = assay: MIC/MBC, fresh isolates; type: cell-based; details: fresh isolate Morganella morganil
Text: as §1

Staph auerus-MR-1 = assay: MIC/MBC, fresh isolates; type: cell-based; details: fresh isolate Staph auerus-MR-1
Text: as §1

Citrobacter Freundii = assay: MIC/MBC, fresh isolates; type: cell-based; details: fresh isolate Citrobacter Freundii
Text: as §1

Staph aureus = assay: MIC/MBC, fresh isolates; type: cell-based; details: fresh isolate Staph aureus
Text: as §1

Staph aureus-MR-2 = assay: MIC/MBC, fresh isolates; type: cell-based; details: fresh isolate Staph aureus-MR-2
Text: as §1

Pseudomonas aeruginosa-2 = assay: MIC/MBC, fresh isolates; type: cell-based; details: fresh isolate Pseudomonas aeruginosa-2
Text: as §1

Pseudomonas aeruginosa-1 = assay: MIC/MBC, fresh isolates; type: cell-based; details: fresh isolate Pseudomonas aeruginosa-1
Text: as §1

[1] = system: Human mononuclear leukocytes; assay: 3H-thymidine uptake in WBC (proliferation); type: cell-based
Procedure: Human mononuclear leukocytes were isolated from whole blood in the following manner. Blood was collected in vacutainer tubes containing EDTA, and was then diluted with an equal valume of calcium and magnesium-free PBS and layered over Histopaque resin (GIBCO). The tubes were centrifuged for 30 minutes at 25° C. and 450× g. The plasma and platelets above the banded layer of cells in the resulting gradient were removed and discarded. The banded white blood cells were removed to fresh test tubes, washed 3 times with PBS, and resuspended in RPMI medium containing 10% fetal bovine serum (FBS), mercaptoethanol, and penicillin and streptomycin as antibiotics. The cells were then counted and resuspended to a final concentration of 3×10^6 cells/ml.
To each well of a 96 well flat-bottomed microtiter plate was aded 100 μl of cells (3×10^5 cells). Treatment groups were set in quadruplicate samples. The appropriate concentration of test peptide and/or the mitogen hytohemaglutinate (PHA), was added in a total volume of 100 μl of medium to the test wells. The plates were then incubated at 37° C. and 5% CO2 for a duration of 72 hours. At the end of the incubation period, 1 μCi of 3H-thymidine in 1 μl TRIS-HCI, PH8 was added to each well, and the plates incubated an additional 18 hours.
Cellular DNA was harvested onto glass fiber filters using a semi-automatic cell harvester. The glass filters were then placed into vials containing scintillation fluid, and the samples were counted in a scintillation counter. The uptake of 3H-thymidine is an indiator of cell proliferation, thus the higher the number of counts in the sample, the greater the proliferative activity of the cells. The results in Table XI indicate that low dose of the synthetic peptides of this invention stimulate cell growth.

P. aeruginosa = assay: MBC and MIC susceptibility test; type: cell-based; details: P. aeruginosa (−)
E. coli = assay: MBC and MIC susceptibility test; type: cell-based
S. aureus = assay: MBC and MIC susceptibility test; type: cell-based; details: S. auerus (+)
[2] = Lytic activity (general statement)
lymphocytes = type: cell-based, human

CC(C)C[C@H](NC(=O)[C@H](CCCCN)NC(=O)[C@H](CCCCN)NC(=O)[C@H](C)NC(=O)[C@H](CC(C)C)NC(=O)[C@H](CCCCN)NC(=O)[C@H](C)NC(=O)[C@H](CC(C)C)NC(=O)[C@H](CCCCN)NC(=O)[C@H](CCCCN)NC(=O)[C@H](C)NC(=O)[C@H](CC(C)C)NC(=O)[C@H](CCCCN)NC(=O)[C@H](CCCCN)NC(=O)[C@H](CC(C)C)NC(=O)[C@H](CCCCN)NC(=O)[C@H](CCCCN)NC(=O)[C@H](C)NC(=O)[C@H](CC(C)C)NC(=O)[C@H](CCCCN)NC(=O)[C@H](CCCCN)NC(=O)[C@H](C)NC(=O)[C@@H](N)Cc1ccccc1)C(N)=O [Anubis-2] (H-FAKKLAKKLKKLAKKLAKLAKKL-NH2)
MBC (Enterobacteria Cloacae): 12.8 µM (≈ 33.4 µg/mL) | MIC (Enterobacteria Cloacae): 6.4 µM (≈ 16.7 µg/mL) | MBC (Klebsiella pheumoniae-2): 25.6 µM (≈ 66.8 µg/mL) | MIC (Klebsiella pheumoniae-2): 6.4 µM (≈ 16.7 µg/mL) | MBC (Staph Coag neg): 3.2 µM (≈ 8.35 µg/mL) | MIC (Staph Coag neg): 1.6 µM (≈ 4.17 µg/mL) | MIC (Enterococcus-2): 51.2 µM (≈ 134 µg/mL) | MBC (Citrobacter Diversus): 6.4 µM (≈ 16.7 µg/mL) | MIC (Citrobacter Diversus): 3.2 µM (≈ 8.35 µg/mL) | MBC (Enterococcus-1): 3.2 µM (≈ 8.35 µg/mL) | MIC (Enterococcus-1): 1.6 µM (≈ 4.17 µg/mL) | MBC (Acinetobacter Cal Anit): 3.2 µM (≈ 8.35 µg/mL) | MIC (Acinetobacter Cal Anit): 3.2 µM (≈ 8.35 µg/mL) | MIC (Serratia Marcescens): 51.2 µM (≈ 134 µg/mL) | MBC (Pseudomonas aeruginosa-3): 51.2 µM (≈ 134 µg/mL) | MIC (Pseudomonas aeruginosa-3): 6.4 µM (≈ 16.7 µg/mL) | MBC (Eschera Coli): 12.8 µM (≈ 33.4 µg/mL) | MIC (Eschera Coli): 6.4 µM (≈ 16.7 µg/mL) | MBC (Klebsiella pheumoniae): 6.4 µM (≈ 16.7 µg/mL) | MIC (Klebsiella pheumoniae): 3.2 µM (≈ 8.35 µg/mL) | MIC (Enterococcus-3): 51.2 µM (≈ 134 µg/mL) | MIC (Morganella morganil): 51.2 µM (≈ 134 µg/mL) | MIC (Staph auerus-MR-1): 51.2 µM (≈ 134 µg/mL) | MBC (Citrobacter Freundii): 6.4 µM (≈ 16.7 µg/mL) | MIC (Citrobacter Freundii): 3.2 µM (≈ 8.35 µg/mL) | MBC (Staph aureus): 51.2 µM (≈ 134 µg/mL) | MIC (Staph aureus): 6.4 µM (≈ 16.7 µg/mL) | MBC (Staph aureus-MR-2): 25.6 µM (≈ 66.8 µg/mL) | MIC (Staph aureus-MR-2): 12.8 µM (≈ 33.4 µg/mL) | MBC (Pseudomonas aeruginosa-2): 6.4 µM (≈ 16.7 µg/mL) | MIC (Pseudomonas aeruginosa-2): 3.2 µM (≈ 8.35 µg/mL) | MBC (Pseudomonas aeruginosa-1): 25.6 µM (≈ 66.8 µg/mL) | MIC (Pseudomonas aeruginosa-1): 6.4 µM (≈ 16.7 µg/mL) | 3H-Thymidine Uptake in WBC, % of Control ([1]; peptide 10 μM, PHA 0 mg): 149% | 3H-Thymidine Uptake in WBC, % of Control ([1]; peptide 10 μM, PHA 0.5 mg): 290% | 3H-Thymidine Uptake in WBC, % of Control ([1]; peptide 10 μM, PHA 5.0 mg): 120% | 3H-Thymidine Uptake in WBC, % of Control ([1]; peptide 25 μM, PHA 0 mg): 46% | 3H-Thymidine Uptake in WBC, % of Control ([1]; peptide 25 μM, PHA 0.5 mg): 393% | 3H-Thymidine Uptake in WBC, % of Control ([1]; peptide 25 μM, PHA 5.0 mg): 108% | 3H-Thymidine Uptake in WBC, % of Control ([1]; peptide 50 μM, PHA 0 mg): 19% | 3H-Thymidine Uptake in WBC, % of Control ([1]; peptide 50 μM, PHA 0.5 mg): 4% | 3H-Thymidine Uptake in WBC, % of Control ([1]; peptide 50 μM, PHA 5.0 mg): 1% | 3H-Thymidine Uptake in WBC, % of Control ([1]; peptide 100 μM, PHA 0 mg): 26% | 3H-Thymidine Uptake in WBC, % of Control ([1]; peptide 100 μM, PHA 0.5 mg): 5% | 3H-Thymidine Uptake in WBC, % of Control ([1]; peptide 100 μM, PHA 5.0 mg): 0%

CC[C@H](C)[C@H](NC(=O)[C@H](CC(N)=O)NC(=O)[C@H](CCCNC(=N)N)NC(=O)CNC(=O)[C@H](CCSC)NC(=O)[C@H](CCCCN)NC(=O)[C@H](CCC(=O)O)NC(=O)[C@@H](NC(=O)[C@H](CCCCN)NC(=O)[C@H](CC(C)C)NC(=O)[C@H](Cc1ccccc1)NC(=O)[C@@H](NC(=O)[C@H](CCCCN)NC(=O)[C@H](CCC(=O)O)NC(=O)[C@H](CCCCN)NC(=O)[C@@H]1CCCN1C(=O)[C@@H](N)CCSC)C(C)C)[C@@H](C)CC)C(=O)N[C@@H](CCCNC(=N)N)C(=O)N[C@@H](CC(N)=O)C(N)=O [Vishnu-3] (H-MPKEKVFLKIEKMGRNIRN-NH2)
antibacterial result of treatment (Table I; MBC) (P. aeruginosa): >64 µM | antibacterial result of treatment (Table I; MBC) (E. coli): >64 µM | antibacterial result of treatment (Table I; MBC) (S. aureus): >64 µM | lytic activity (in words) [2]: devoid of lytic activity | stimulation of cell proliferation (in words) (lymphocytes): potent stimulator of cell proliferation
